Data taken from patent US20240142458A1, “FLUORESCENT PROBES FOR QUANTIFICATION OF FREE COPPER” (TECHNISCHE UNIVERSITÄT BERLIN, priority 2020, published 2024).

Assays:
[1] = Metal-dependent changes of absorbance and fluorescence properties, cell-free; details: for new absorbance band peak after Cd^2+ treatment: decline of 416 nm maximum; for Soret peak of visible absorption: buffer-control treatment, pH 7.4, 10 μM probe
Caco-2 cells [2] = test: Live-cell sensing of metal uptake into Caco-2 enterocytes; format: cell-based, human; details: for intracellular probe fluorescence upon extracellular FeSO4: 50 μM FeSO4, Caco-2 cells; for intracellular probe fluorescence upon Cu-exposure / intracellular probe response to incoming Cd^2+, Cu^2+, Hg^2+, Mn^2+, Pb^2+ and Zn^2+: 50 μM, Caco-2 cells
Method: FIG. 11: Live-cell sensing of metal uptake into Caco-2 enterocytes with p-H8THPPA and m-H8TPPA. • Caco-2 cells were loaded with p-H8THPPA or m-H8TPPA and the fluorescence recorded in 3 min intervals (⋅⋅Exc/Em.416 nm/650 nm). Fifteen minutes after the start of the experiment (arrow), metal cation solutions (final concentration 50 μM) or buffer (control) were added and the fluorescence measurement continued. Data are means±S.E.M. of n=3 independent experiments.
FIG. 12 Summary of cellular p-H8TPPA and m-H8TPPA metal responsiveness. • Data were taken from the last fluorescence readout shown in FIG. 11. Data are means+S.E.M. of n=3 independent experiments. Significant differences from buffer incubation ***p<0.001; **p<0.01; *p<0.05; one-way ANOVA/Dunnett's multiple comparison test.
(§1) The human intestinal cell line Caco-2 (European Collection of Cell Cultures, Porton Down, UK) were routinely cultured at 37° C., 5% CO2 and humidified atmosphere in Dulbecco's Modified Eagles Medium (DMEM), containing 10% fetal calf serum (FCS) 100 U/mL penicillin and 100 μg/ml streptomycin. For cellular phosphonate porphyrins experiments, Caco-2 cells were transferred into 96 wells (initially seeding 5000 cells per well) and cultured for 14 days for differentiation into an enterocyte-like monolayer^53,54. For phosphonate labeling, differentiated cells were treated with either m-H8TPPA, p-H8TPPA or p-H8TPPA-iPr8 in a HEPES-based incubation buffer (10 mM HEPES, pH 7.35, 120 mM NaCl, 5.4 mM KCl, 5 mM glucose, 1.3 mM CaCl2, 1 mM MgCl2, 1 mM NaH2PO4, 0.3% bovine serum albumin) for […] Excess fluorescent dye was removed by multiple washing steps before fluorescence emission scanning using 416 nm excitation (Tecan Infinite M200 reader; Tecan, Grödig/Salzburg, […]). To analyze metal responsiveness of the intracellular phosphonate porphyrins, cells were post-treated with 50 μM of different metal solutions at 37° C. in an albumin-free incubation buffer in a time-course experiment.

[3] = Reversibility of metal complexation upon addition of EDTA or EGTA; details: 50 equivalents
Method: FIG. 9: Reversibility of p-H8THPPA and m-H8TPPA metal complexation. • Fluorescence of metal cation pretreated p-H8THPPA or m-H8TPPA solutions upon addition of 50 equivalents of EDTA or EGTA (⋅⋅Exc/Em.416 nm/650 nm). Data are means±S.E.M. of n=3 independent experiments. Statistically significant differences from buffer incubation (***p<0.001; two-way ANOVA/ Tukey post hoc test) or from metal cation treatment (##p<0.01; ###p<0.001; two-way ANOVA/Tukey post hoc test) are indicated.
(§2) Absorption spectra were recorded with a Tecan Infinite M200 Reader (Tecan Austria GmbH, Grödig/Salzburg, Switzerland) from 350 to 500 nm. The same device was used in fluorescence mode to measure fluorescence excitation ([…]; ⋅⋅Em. 650 nm) and fluorescence emission (550-850 nm; ⋅⋅Exc. 415 nm) spectra. 3D scanning was performed on a Spark® multimode microplate reader (Tecan Austria GmbH, Grodig/Salzburg, Switzerland) from 350 to 450 nm (Exc.) and 555 to 850 nm (Em.) with a 5 nm step size, excitation and emission bandwidths of 5 nm, and a detector gain of 100. A typical reaction mix was made by combining equal volumes of 20 μM phosphonate porphyrins diluted in assay-buffer (50 mM HEPES in bidistilled water adjusted to […] with sodium hydroxide solution; depleted of multivalent cations with Chelex® 100 Resin pretreatment^51) and a double-concentrated metal cation solution. Following 30 min incubations at 37° C. absorption or fluorescence measurements were done. For redox conversion tests the CuSO4 solutions were pretreated with 500 μM of L-ascorbic acid before admixing into the phosphonate porphyrin dilutions. To evaluate the effect of metal chelators, the metal cation-treated incubation mixtures were posttreated with 50 equivalents of EDTA or EGTA for 15 min before fluorescence emission readout.

Caco-2 cells [4] = test: Fluorescence labeling of Caco-2 enterocytes (emission spectra, confocal imaging); format: cell-based, human; details: for passage of the cellular membrane / cellular uptake: Caco-2 cells, fluorescence spectra and confocal imaging
Method: FIG. 2: Caco-2 fluorescence labeling with Phenylphosphonate-substituted porphyrines. • Caco-2 cells were incubated with increasing concentrations of p-H8TPPA or m-H8TPPA followed by fluorescence measurement (⋅Exc/Em.416 nm/650 nm). Data are means±S.E.M. of n=3 independent experiments.
FIG. 5: Fluorescence labeling of Caco-2 enterocytes by phenylphosphonate-substituted porphyrines. • Fluorescence emission spectra of Caco-2 cells exposed to p-H8TPPA, m-H8TPPA (A) or the isopropyl-modified phosphonate p-H8TPPA-iPr8 (C) in comparison with each of the phenylphosphonate porphyrins as 10 μM dilution in assay buffer (⋅Exc416 nm). (B) Confocal images of Caco-2 upon loading with p-H8TPPA or m-H8TPPA. (D) Confocal images of p-H8TPPA-iPr8 in the presence or absence of Caco-2 cells. Scale bar=10 μm. Data are representative for three independent experiments.
as §1
Fluorescence images of phosphonate porphyrin-labeled Caco-2 enterocytes were acquired on a Leica TCS SP8 laser scanning confocal microscope equipped with LAS X 3.5.5.19976 software platform, using a HC PL APO CS2 63×/1.20 water objective. The filters settings were[…]Exc488 nm/[…]Em580 nm; pinhole 111.5 μm, pinhole size 1 AU.

[5] = Metal-dependent changes of absorbance and fluorescence properties, cell-free; details: for fluorescence change by iron treatment in vitro: cell-free, FIG. 1
Method: (§3) FIG. 1: Metal-dependent changes of p-H8TPPA absorbance and fluorescence properties. • 10 μM p-H8TPPA dilutions were treated with various metal solutions (final concentration 40 μM) before recording (A) absorbance, (B) fluorescence excitation (⋅Em.650 nm) and (C) fluorescence emission (⋅⋅Exc.415 nm) spectra. Data are representative for three independent experiments.
as §3, with “3:” for “1:”, “m-H8TPPA” for “p-H8TPPA”
Aiming to use arylphosphonate-tethered porphyrins as real-time cellular metal fluorescence sensors, we first characterized their metal-responsiveness under cell-free conditions. p-H8TPPA (see FIG. 1) and m-H8TPPA (see FIG. 3), were pretreated with various bivalent metal ions at a pH close to the cellular milieu (pH 7.4) before recording absorption and fluorescence spectra. […] Following Co^2+ treatment absorption spectra were less intense, plateau-shaped with a bathochromic broadening up to 434 nm. Hg^2+-treatment red-shifted the Soret band by approximately 30 nm. […] Despite of their restricted fluorescence intensity, the fluorescence emission patterns of all the aforementioned metal-treated arylphosphonate-tethered porphyrins seemed to be […] almost indistinguishable from the buffer-controls (see FIG. 1C, FIGS. 2 and 4). Zn^2+ treatment led to a declined and much more broadened Soret band in the range of 380-430 nm (see FIG. 1A). […] Thus, we assume a fluorescence quenching effect of Zn^2+ that requires further investigation.
as §2

[6] = Fluorescence titration with metal cations; details: for half maximal effective concentration for fluorescence silencing, copper versus other metal cations: 10 μM probe, Exc/Em 416 nm/650 nm; for fluorescence upon treatment with Cu^2+: 40 μM Cu^2+ (CuSO4), probe 10 μM
Method: FIG. 6: Fluorescence titration of p-H8THPPA and m-H8TPPA with metal cations. • 10 μM p-H8TPPA or m-H8TPPA solutions were treated with increasing quantities of metal cations followed by detection of fluorescence emission (⋅Exc/Em.416 nm/650 nm). Data are means±S.E.M. of at least n=3 independent experiments. Sigmoidal dose—response curves were fitted by non-linear regression and the resulting EC50 values are indicated.
FIG. 7: Fluorescence titration of p-H8THPPA and m-H8TPPA upon addition of metal cations • 10 μM p-H8TPPA or […] were treated with increasing quantities of metal cations followed by detection of fluorescence emission (⋅Exe/Em.416 nm/650 nm). Data are means+S.E.M. of at least n=3 independent experiments. Sigmoidal dose—response curves were fitted by non-linear regression and the resulting EC50 values are indicated.
as §2

[7] = Effect of Cu-redox conversion on fluorescence; details: 10 μM CuSO4 +/- 500 μM L-ascorbic acid
Method: FIG. 10: Effect of Cu-redox conversion on p-H8THPPA and m-H8TPPA fluorescence properties • 10 μM CuSO4 solutions pretreated +/−500 μM of l-ascorbic acid (15 min) were mixed with p-H8-TPPA or m-H8TPPA followed by detection of fluorescence emission (⋅⋅Exc/Em.416 nm/650 nm). Data are means+S.E.M. of n=3 independent experiments. Statistically significant differences from control ***p<0.001; two-way ANOVA/Tukey post hoc test) or from Cu^2+ alone (#p<0.05; two-way ANOVA/Tukey post hoc test) are indicated.
Absorption spectra were recorded with a Tecan Infinite M200 Reader (Tecan Austria GmbH, Grödig/Salzburg, Switzerland) from 350 to 500 nm. The same device was used in fluorescence mode to measure fluorescence excitation ([…]; ⋅⋅Em. 650 nm) and fluorescence emission (550-850 nm; ⋅⋅Exc. 415 nm) spectra. 3D scanning was performed on a Spark® multimode microplate reader (Tecan Austria GmbH, Grodig/Salzburg, Switzerland) from 350 to 450 nm (Exc.) and 555 to 850 nm (Em.) with a 5 nm step size, excitation and emission bandwidths of 5 nm, and a detector gain of 100. […] Following 30 min incubations at 37° C. absorption or fluorescence measurements were done. […] To evaluate the effect of metal chelators, the metal cation-treated incubation mixtures were posttreated with 50 equivalents of EDTA or EGTA for 15 min before fluorescence emission readout.

[8] = Solubility in aqueous media with detergent pluronic; format: physicochemical; details: pluronic F-127
[9] = 10 μM probe, 40 μM metal, pH 7.4

Row | Structure (SMILES) | fluorescence change upon Ca^2+ or Mg^2+ treatment [1, 9] | fluorescence change upon Mn^2+ and (far more pronounced) Pb^2+ treatment [1, 9] | red-shift of the Soret band after Hg^2+ treatment [1, 9] | new absorbance band peak after Cd^2+ treatment [1, 9] | Soret peak of visible absorption [1] | intracellular probe fluorescence upon extracellular FeSO4 (Caco-2 cells [2]) | intracellular probe fluorescence upon Cu-exposure (Caco-2 cells [2]) | intracellular probe response to incoming Cd^2+, Cu^2+, Hg^2+, Mn^2+, Pb^2+ and Zn^2+ (Caco-2 cells [2]) | response of Zn^2+ and Hg^2+ quenching to metal chelator posttreatment [3] | response of copper-induced fluorescence decrease to metal chelator posttreatment [3] | passage of the cellular membrane / cellular uptake (Caco-2 cells [4]) | fluorescence change on binding of free divalent Cu, Zn, Pb, Hg, Cd, Co and Mn ions [5] | fluorescence change on binding of free divalent Fe, Mg and Ca ions [5] | fluorescence change by iron treatment in vitro [5] | half maximal effective concentration for fluorescence silencing, copper versus other metal cations [6] | fluorescence upon treatment with Cu^2+ [6] | fluorescence response to Cu^2+ and Cu^+ [7] | also measured
1 | O=P(O)(O)c1cccc(-c2c3nc(c(-c4cccc(P(=O)(O)O)c4)c4ccc([nH]4)c(-c4cccc(P(=O)(O)O)c4)c4nc(c(-c5cccc(P(=O)(O)O)c5)c5ccc2[nH]5)C=C4)C=C3)c1 [m-H8TPPA, 5,10,15,20-tetrakis [m-phenylphosphonic acid] porphyrin] | higher fluorescence | dropped markedly | approximately 30 nm | 434 nm | around 416 nm | remained stable | strong and rapid decline | fluorescence silencing | quenching was reversed | almost non-responsive | pass the cellular membrane | fluorescent decrease | fluorescent increase | slightly enhanced | considerably lower for copper | almost complete abrogation | Quenching | 
2 | O=P(O)(O)c1ccc(-c2c3nc(c(-c4ccc(P(=O)(O)O)cc4)c4ccc([nH]4)c(-c4ccc(P(=O)(O)O)cc4)c4nc(c(-c5ccc(P(=O)(O)O)cc5)c5ccc2[nH]5)C=C4)C=C3)cc1 [p-H8TPPA, 5,10,15,20-Tetrakis [p-phenylphosphonic acid] porphyrin] | higher fluorescence | dropped markedly | approximately 30 nm | 434 nm | around 416 nm | remained stable | strong and rapid decline | fluorescence silencing | quenching was reversed | almost non-responsive | pass the cellular membrane | fluorescent decrease | fluorescent increase | slightly enhanced | considerably lower for copper | almost complete abrogation | Quenching | fluorescence emission after Zn^2+ treatment relative to excitation properties ([1]; 10 μM probe, 40 μM metal, pH 7.4, FIG. 1): much lower than what would have been expected
3 | CC(C)OP(=O)(OC(C)C)c1ccc(-c2c3nc(c(-c4ccc(P(=O)(OC(C)C)OC(C)C)cc4)c4ccc([nH]4)c(-c4ccc(P(=O)(OC(C)C)OC(C)C)cc4)c4nc(c(-c5ccc(P(=O)(OC(C)C)OC(C)C)cc5)c5ccc2[nH]5)C=C4)C=C3)cc1 [p-H8TPPA-iPr8, 5,10,15,20-tetrakis[p-(diisopropoxyphosphoryl)phenyl] porphyrin] |  |  |  |  |  |  |  |  |  |  | inaccessible for cellular uptake |  |  |  |  |  |  | microcrystal size in confocal microscopy pictures (Caco-2 cells [4]; incubation buffer, with or without Caco-2 cells): ~20 μm; effect of detergent pluronic on solubility in aqueous media [8]: did not improve the solubility; fluorescence change upon metal binding ([5]; isopropyl diester, phosphonate blocked for metal binding): no fluorescence change
